Assay results: EP4678638A1, “NEW E3 UBIQUITIN LIGASE LIGAND, PROTEIN DEGRADATION AGENT AND USE THEREOF” (priority 2023, dated 2024)

How the values were obtained:
[1] = molecular target: T1, IKZF3 (Homo sapiens, UniProt Q96SW2+Q9UKT9); assay: Western blot degradation of IKZF3 (hPBMC); format: cell-based; settings: Table D16
T1 construct: evaluate the effects of the compounds of the present disclosure on the expression of target proteins in cells; endogenous in cells; host or cells: hPBMC
Outline: (§1)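 Degradation is assessed by immunoblotting lysates of treated cells. Target bands are quantified by grayscale and normalised to an internal control, so degradation rate equals 100% minus % remaining.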

[2] = molecular target: T2, CK1a (Homo sapiens, UniProt P48729+Q96SW2); assay: Western blot degradation of CK1a (hPBMC); format: cell-based; settings: Table D16
T2 construct: evaluate the effects of the compounds of the present disclosure on the expression of target proteins in cells; endogenous in cells; host or cells: hPBMC
Outline: as §1

[3] = molecular target: T3, GSPT1 (Homo sapiens, UniProt P15170+Q96SW2); assay: Western blot degradation of GSPT1 (hPBMC); format: cell-based; settings: Table D16
T3 construct: evaluate the effects of the compounds of the present disclosure on the expression of target proteins in cells; endogenous in cells; host or cells: hPBMC
Outline: as §1

[4] = molecular target: T4, WEE1 (Homo sapiens, UniProt P30291+Q96SW2); assay: Western blot degradation of WEE1 (hPBMC); format: cell-based; settings: Table D16
T4 construct: evaluate the effects of the compounds of the present disclosure on the expression of target proteins in cells; endogenous in cells; host or cells: hPBMC
Outline: as §1

[5] = test system: MCF7; assay: CCK-8 proliferation, MCF7 (MCF-7); format: cell-based; settings: Homo sapiens, MCF7; CCK-8; read-out: Inhibitory activity (IC50) on tumor cell proliferation, MCF-7
Outline: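 CCK-8 viability readout; IC50 from growth-inhibition curve fitting. Cells plated, dosed 24h later with a 10-point series, top 10µM, 5-fold steps. Culture at 37°C, 5% CO2.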

[6] = molecular target: T5, IKZF2 (Homo sapiens, UniProt Q96SW2+Q9UKS7); assay: Western blot degradation of IKZF2 (hPBMC); format: cell-based; settings: Table D16
T5 construct: evaluate the effects of the compounds of the present disclosure on the expression of target proteins in cells; endogenous in cells; host or cells: hPBMC
Outline: as §1

[7] = molecular target: T6, IKZF1 (Homo sapiens, UniProt Q13422+Q96SW2); assay: Western blot degradation of IKZF1 (hPBMC); format: cell-based; settings: Table D16
T6 construct: evaluate the effects of the compounds of the present disclosure on the expression of target proteins in cells; endogenous in cells; host or cells: hPBMC
Outline: as §1

[8] = molecular target: T7, human Cereblon WT GST-tagged protein (Homo sapiens, UniProt Q96SW2); assay: CRBN binding, HTRF (CEREBLON BINDING kit); settings: Table II-2, CRBN binding screening, HTRF
T7 construct: purchased CISBIO 64BDCRBNPEH
Outline: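 Competitive HTRF: GST-tagged human WT Cereblon mixed with compound, Thalidomide-Re tracer and GST Eu antibody, incubated 3 h at room temperature. Signals read at 620 and 665 nm.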

T3 sequence (P15170 whole entry): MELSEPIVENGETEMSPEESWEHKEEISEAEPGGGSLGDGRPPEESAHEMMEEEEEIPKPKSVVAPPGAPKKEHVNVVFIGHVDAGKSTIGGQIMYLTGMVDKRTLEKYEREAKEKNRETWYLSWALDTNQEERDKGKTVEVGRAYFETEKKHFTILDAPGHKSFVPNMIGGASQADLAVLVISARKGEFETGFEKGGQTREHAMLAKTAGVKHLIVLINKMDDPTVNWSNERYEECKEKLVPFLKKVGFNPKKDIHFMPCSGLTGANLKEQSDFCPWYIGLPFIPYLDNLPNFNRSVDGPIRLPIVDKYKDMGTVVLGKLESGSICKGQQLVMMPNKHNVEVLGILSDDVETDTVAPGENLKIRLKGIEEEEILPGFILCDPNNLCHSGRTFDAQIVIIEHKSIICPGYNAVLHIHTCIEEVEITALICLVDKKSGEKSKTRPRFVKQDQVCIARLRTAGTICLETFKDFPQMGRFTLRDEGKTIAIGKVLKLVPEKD
T3 sequence (Q96SW2 whole entry): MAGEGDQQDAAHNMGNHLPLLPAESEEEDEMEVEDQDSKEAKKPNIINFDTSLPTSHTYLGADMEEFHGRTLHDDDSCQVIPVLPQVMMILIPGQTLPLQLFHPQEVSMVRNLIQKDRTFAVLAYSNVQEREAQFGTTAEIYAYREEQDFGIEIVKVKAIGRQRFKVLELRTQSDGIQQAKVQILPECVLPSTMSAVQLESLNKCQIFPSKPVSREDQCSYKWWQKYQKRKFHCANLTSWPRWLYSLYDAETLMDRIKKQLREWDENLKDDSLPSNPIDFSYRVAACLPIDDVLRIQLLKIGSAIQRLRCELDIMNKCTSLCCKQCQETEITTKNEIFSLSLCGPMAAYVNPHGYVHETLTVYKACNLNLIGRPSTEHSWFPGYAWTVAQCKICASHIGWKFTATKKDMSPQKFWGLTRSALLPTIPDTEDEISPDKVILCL
T3 sequence (Q16531 whole entry partner): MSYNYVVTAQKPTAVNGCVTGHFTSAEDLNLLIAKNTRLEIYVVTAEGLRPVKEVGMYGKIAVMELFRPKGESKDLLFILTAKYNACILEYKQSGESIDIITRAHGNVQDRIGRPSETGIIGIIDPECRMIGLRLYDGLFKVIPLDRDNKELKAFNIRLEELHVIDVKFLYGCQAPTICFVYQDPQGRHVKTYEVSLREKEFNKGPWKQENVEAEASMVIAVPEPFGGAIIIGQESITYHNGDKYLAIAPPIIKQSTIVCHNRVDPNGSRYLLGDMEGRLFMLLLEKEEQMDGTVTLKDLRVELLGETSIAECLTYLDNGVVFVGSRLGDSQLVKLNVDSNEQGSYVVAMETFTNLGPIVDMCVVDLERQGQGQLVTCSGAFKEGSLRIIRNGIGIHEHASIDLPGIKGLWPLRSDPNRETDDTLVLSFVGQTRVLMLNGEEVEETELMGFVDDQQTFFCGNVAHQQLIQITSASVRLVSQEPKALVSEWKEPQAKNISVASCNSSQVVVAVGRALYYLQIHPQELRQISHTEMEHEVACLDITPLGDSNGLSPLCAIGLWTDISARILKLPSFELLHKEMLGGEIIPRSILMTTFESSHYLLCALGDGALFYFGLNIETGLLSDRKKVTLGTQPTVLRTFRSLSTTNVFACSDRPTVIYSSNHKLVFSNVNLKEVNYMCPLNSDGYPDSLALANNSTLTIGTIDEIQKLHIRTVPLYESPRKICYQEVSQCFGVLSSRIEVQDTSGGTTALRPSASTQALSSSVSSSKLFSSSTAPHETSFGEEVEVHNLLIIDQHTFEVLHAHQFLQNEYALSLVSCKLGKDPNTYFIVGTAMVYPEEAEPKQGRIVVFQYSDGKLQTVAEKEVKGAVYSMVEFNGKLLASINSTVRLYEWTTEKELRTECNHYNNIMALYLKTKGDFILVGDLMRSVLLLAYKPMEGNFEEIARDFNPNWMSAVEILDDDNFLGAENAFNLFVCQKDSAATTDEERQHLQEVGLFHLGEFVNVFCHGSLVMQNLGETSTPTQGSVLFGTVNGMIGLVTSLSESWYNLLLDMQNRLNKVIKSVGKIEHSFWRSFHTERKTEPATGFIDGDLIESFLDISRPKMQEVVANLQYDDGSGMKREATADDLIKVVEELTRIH
T2 sequence (P48729 whole entry): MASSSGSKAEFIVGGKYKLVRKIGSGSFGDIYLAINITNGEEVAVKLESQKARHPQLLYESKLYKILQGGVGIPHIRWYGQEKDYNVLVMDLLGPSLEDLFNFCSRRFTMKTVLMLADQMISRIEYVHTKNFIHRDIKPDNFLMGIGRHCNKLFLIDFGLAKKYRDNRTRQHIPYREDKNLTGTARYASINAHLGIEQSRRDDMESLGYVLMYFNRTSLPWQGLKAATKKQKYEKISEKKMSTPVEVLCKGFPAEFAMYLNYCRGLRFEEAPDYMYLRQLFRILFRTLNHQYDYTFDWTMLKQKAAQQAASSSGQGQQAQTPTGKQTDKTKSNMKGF
T2 sequence (Q96SW2 whole entry): as the sequence (Q96SW2 whole entry) above
T2 sequence (Q16531 whole entry partner): as the sequence (Q16531 whole entry partner) above
T4 sequence (P30291 whole entry): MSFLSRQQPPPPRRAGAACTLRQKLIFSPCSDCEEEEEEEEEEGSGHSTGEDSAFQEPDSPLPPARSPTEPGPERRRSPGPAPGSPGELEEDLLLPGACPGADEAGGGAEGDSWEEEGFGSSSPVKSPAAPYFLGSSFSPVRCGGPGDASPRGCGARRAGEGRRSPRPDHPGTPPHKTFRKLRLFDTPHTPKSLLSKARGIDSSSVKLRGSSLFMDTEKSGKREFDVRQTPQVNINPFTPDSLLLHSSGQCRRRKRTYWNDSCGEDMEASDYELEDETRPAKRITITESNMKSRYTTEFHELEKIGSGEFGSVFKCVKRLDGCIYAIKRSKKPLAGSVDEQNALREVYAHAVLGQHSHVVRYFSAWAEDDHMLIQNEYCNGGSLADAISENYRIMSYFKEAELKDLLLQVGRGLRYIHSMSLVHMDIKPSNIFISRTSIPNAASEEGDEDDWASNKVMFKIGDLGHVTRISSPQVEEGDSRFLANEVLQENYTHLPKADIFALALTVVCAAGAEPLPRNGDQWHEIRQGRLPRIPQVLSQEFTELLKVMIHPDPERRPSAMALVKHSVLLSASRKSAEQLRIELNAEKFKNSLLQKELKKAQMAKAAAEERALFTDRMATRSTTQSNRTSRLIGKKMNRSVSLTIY
T4 sequence (Q96SW2 whole entry): as the sequence (Q96SW2 whole entry) above
T4 sequence (Q16531 whole entry partner): as the sequence (Q16531 whole entry partner) above
T6 sequence (Q13422 whole entry): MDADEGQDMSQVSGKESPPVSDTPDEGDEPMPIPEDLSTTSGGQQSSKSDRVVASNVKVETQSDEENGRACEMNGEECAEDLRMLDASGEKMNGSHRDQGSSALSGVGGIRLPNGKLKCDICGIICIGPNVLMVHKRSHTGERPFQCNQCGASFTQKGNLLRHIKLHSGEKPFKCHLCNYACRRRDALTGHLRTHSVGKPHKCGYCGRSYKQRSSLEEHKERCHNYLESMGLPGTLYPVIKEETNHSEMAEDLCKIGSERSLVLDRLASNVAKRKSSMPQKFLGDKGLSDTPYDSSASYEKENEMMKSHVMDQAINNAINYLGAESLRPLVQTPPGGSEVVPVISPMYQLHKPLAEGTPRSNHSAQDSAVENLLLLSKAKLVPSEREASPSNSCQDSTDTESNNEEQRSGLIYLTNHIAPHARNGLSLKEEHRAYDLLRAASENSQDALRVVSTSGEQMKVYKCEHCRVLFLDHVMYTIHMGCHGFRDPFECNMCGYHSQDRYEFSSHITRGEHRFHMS
T6 sequence (Q96SW2 whole entry): as the sequence (Q96SW2 whole entry) above
T6 sequence (Q16531 whole entry partner): as the sequence (Q16531 whole entry partner) above
T1 sequence (Q9UKT9 whole entry): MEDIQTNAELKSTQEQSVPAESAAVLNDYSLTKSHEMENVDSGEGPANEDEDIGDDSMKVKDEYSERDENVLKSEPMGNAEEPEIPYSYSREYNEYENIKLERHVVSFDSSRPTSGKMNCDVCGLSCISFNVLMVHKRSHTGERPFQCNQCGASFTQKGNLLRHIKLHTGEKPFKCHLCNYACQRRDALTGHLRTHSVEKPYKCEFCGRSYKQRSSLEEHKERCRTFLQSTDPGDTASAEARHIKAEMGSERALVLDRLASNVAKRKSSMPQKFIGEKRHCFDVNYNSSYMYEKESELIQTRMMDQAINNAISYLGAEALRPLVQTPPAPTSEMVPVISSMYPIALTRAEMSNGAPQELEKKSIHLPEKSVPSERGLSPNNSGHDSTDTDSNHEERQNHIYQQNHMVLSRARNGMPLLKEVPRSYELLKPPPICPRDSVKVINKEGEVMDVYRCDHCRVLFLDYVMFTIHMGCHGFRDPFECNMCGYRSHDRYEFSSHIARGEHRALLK
T1 sequence (Q96SW2 whole entry): as the sequence (Q96SW2 whole entry) above
T1 sequence (Q16531 whole entry partner): as the sequence (Q16531 whole entry partner) above
T7 sequence (Q96SW2 whole entry): as the sequence (Q96SW2 whole entry) above

IC50 [5]	inhibition at 0.5 µM ([8]; at 0.5µM, read-out: Inhibition rate (%) at 0.5µM)	inhibition at 2 µM ([8]; at 2 µM, read-out: Inhibition rate (%) at 2 µM)	SMILES	Degradation of substrate protein IKZF3 (substrate protein remaining %) [1]	Degradation of substrate protein CKla (substrate protein remaining %) [2]	Degradation of substrate protein GSPT1 (substrate protein remaining %) [3]	Degradation of substrate protein WEE1 (substrate protein remaining %) [4]	Degradation of substrate protein IKZF2 (substrate protein remaining %) [6]	Degradation of substrate protein IKZF1 (substrate protein remaining %) [7]
1 to 5 µM			O=Cc1cccnc1NC1CCC(=O)NC1=O (centres unmarked) [GT-07447, 2-((2,6-Dioxopiperidin-3-yl)amino)nicotinaldehyde]	A (A is defined as 0% ≤ substrate protein remaining % ≤ 80%)	A (A is defined as 0% ≤ substrate protein remaining % ≤ 80%)	A (A is defined as 0% ≤ substrate protein remaining % ≤ 80%)	A (A is defined as 0% ≤ substrate protein remaining % ≤ 80%)	A (A is defined as 0% ≤ substrate protein remaining % ≤ 80%)	A (A is defined as 0% ≤ substrate protein remaining % ≤ 80%)
1 to 5 µM			O=C1CCC(c2cnc(CO)c(F)c2)C(=O)N1 (centres unmarked) [GT-07049, 3-(5-Fluoro-6-(hydroxymethyl)pyridin-3-yl)piperidine-2,6-dione]	A (A is defined as 0% ≤ substrate protein remaining % ≤ 80%)	A (A is defined as 0% ≤ substrate protein remaining % ≤ 80%)	A (A is defined as 0% ≤ substrate protein remaining % ≤ 80%)	B (B is defined as substrate protein remaining % > 80%)	A (A is defined as 0% ≤ substrate protein remaining % ≤ 80%)	B (B is defined as substrate protein remaining % > 80%)
1 to 5 µM			O=C1CCN(c2cnc(CO)c(F)c2)C(=O)N1 [GT-07555, 1-(5-Fluoro-6-(hydroxymethyl)pyridin-3-yl)dihydropyrimidine-2,4(1H,3H)-dione]	A (A is defined as 0% ≤ substrate protein remaining % ≤ 80%)	A (A is defined as 0% ≤ substrate protein remaining % ≤ 80%)	A (A is defined as 0% ≤ substrate protein remaining % ≤ 80%)	A (A is defined as 0% ≤ substrate protein remaining % ≤ 80%)	A (A is defined as 0% ≤ substrate protein remaining % ≤ 80%)	A (A is defined as 0% ≤ substrate protein remaining % ≤ 80%)
	30 to 40%	53 to 60%	O=C1CCC(c2cncc(CCl)c2)C(=O)N1 (centres unmarked) [GT-06991, 3-(5-(Chloromethyl)pyridin-3-yl)piperidine-2,6-dione]	B (B is defined as substrate protein remaining % > 80%)	B (B is defined as substrate protein remaining % > 80%)	B (B is defined as substrate protein remaining % > 80%)	B (B is defined as substrate protein remaining % > 80%)	A (A is defined as 0% ≤ substrate protein remaining % ≤ 80%)	B (B is defined as substrate protein remaining % > 80%)
			O=C1CCC(c2ccc(CO)nc2F)C(=O)N1 (centres unmarked) [GT-07558, 3-(2-Fluoro-6-(hydroxymethyl)pyridin-3-yl)piperidine-2,6-dione]	B (B is defined as substrate protein remaining % > 80%)	A (A is defined as 0% ≤ substrate protein remaining % ≤ 80%)	B (B is defined as substrate protein remaining % > 80%)	A (A is defined as 0% ≤ substrate protein remaining % ≤ 80%)	B (B is defined as substrate protein remaining % > 80%)	A (A is defined as 0% ≤ substrate protein remaining % ≤ 80%)
			CC(C)(C)[Si](C)(C)OCc1cnc(NC2CCC(=O)NC2=O)nc1 (centres unmarked) [GT-07808, 3-((5-(((tert-Butyldimethylsilyl)oxy)methyl)pyrimidin-2-yl)amino)piperidine-2,6-dione]	A (A is defined as 0% ≤ substrate protein remaining % ≤ 80%)	B (B is defined as substrate protein remaining % > 80%)	B (B is defined as substrate protein remaining % > 80%)	A (A is defined as 0% ≤ substrate protein remaining % ≤ 80%)	A (A is defined as 0% ≤ substrate protein remaining % ≤ 80%)	A (A is defined as 0% ≤ substrate protein remaining % ≤ 80%)
			NCc1ccc(N2CCC(=O)NC2=O)cn1 [GT-07048, 1-(6-(Aminomethyl)pyridin-3-yl)dihydropyrimidine-2,4(1H,3H)-dione]	A (A is defined as 0% ≤ substrate protein remaining % ≤ 80%)	A (A is defined as 0% ≤ substrate protein remaining % ≤ 80%)	A (A is defined as 0% ≤ substrate protein remaining % ≤ 80%)	B (B is defined as substrate protein remaining % > 80%)	A (A is defined as 0% ≤ substrate protein remaining % ≤ 80%)	A (A is defined as 0% ≤ substrate protein remaining % ≤ 80%)
			O=Cc1cncnc1NC1CCC(=O)NC1=O (centres unmarked) [GT-07805, 4-((2,6-Dioxopiperidin-3-yl)amino)pyrimidine-5-carbaldehyde]	A (A is defined as 0% ≤ substrate protein remaining % ≤ 80%)	B (B is defined as substrate protein remaining % > 80%)	B (B is defined as substrate protein remaining % > 80%)	B (B is defined as substrate protein remaining % > 80%)	A (A is defined as 0% ≤ substrate protein remaining % ≤ 80%)	A (A is defined as 0% ≤ substrate protein remaining % ≤ 80%)
			O=C1CCN(c2cncc(CO)n2)C(=O)N1 [GT-07632, 1-(6-(Hydroxymethyl)pyrazin-2-yl)dihydropyrimidine-2,4(1H,3H)-dione]	A (A is defined as 0% ≤ substrate protein remaining % ≤ 80%)	A (A is defined as 0% ≤ substrate protein remaining % ≤ 80%)	B (B is defined as substrate protein remaining % > 80%)	A (A is defined as 0% ≤ substrate protein remaining % ≤ 80%)	A (A is defined as 0% ≤ substrate protein remaining % ≤ 80%)	A (A is defined as 0% ≤ substrate protein remaining % ≤ 80%)
			NCc1cc(N2CCC(=O)NC2=O)cnc1F [GT-07729, 1-(5-(Aminomethyl)-6-fluoropyridin-3-yl)dihydropyrimidine-2,4(1H,3H)-dione]	A (A is defined as 0% ≤ substrate protein remaining % ≤ 80%)	B (B is defined as substrate protein remaining % > 80%)	A (A is defined as 0% ≤ substrate protein remaining % ≤ 80%)	A (A is defined as 0% ≤ substrate protein remaining % ≤ 80%)	A (A is defined as 0% ≤ substrate protein remaining % ≤ 80%)	A (A is defined as 0% ≤ substrate protein remaining % ≤ 80%)
			O=C1CCC(c2ncc(CO)cc2F)C(=O)N1 (centres unmarked) [GT-07443, 3-(3-Fluoro-5-(hydroxymethyl)pyridin-2-yl)piperidine-2,6-dione]	B (B is defined as substrate protein remaining % > 80%)	A (A is defined as 0% ≤ substrate protein remaining % ≤ 80%)	A (A is defined as 0% ≤ substrate protein remaining % ≤ 80%)	A (A is defined as 0% ≤ substrate protein remaining % ≤ 80%)	A (A is defined as 0% ≤ substrate protein remaining % ≤ 80%)	A (A is defined as 0% ≤ substrate protein remaining % ≤ 80%)
